Measurements published in patent publication US20090326003A1, “PYRAZOLO (3, 4-B) PYRIDINE DERIVATIVES AS PDE4 INHIBITORS” (priority 2006, published 2009).

What follows are compounds tested on TNF-α production in human PBMC (peripheral blood mononuclear cells) (assay: Inhibition of TNF-alpha production in human PBMC (MSD technology)). Conditions: inhibition of LPS-stimulated TNF-α production in human PBMC; measured and/or mean; read-out: PBMC pIC50 (MSD assay) (converted).
Assay type: cell-based
Procedure: A 96-well plate (96 MicroWell™ Plates Nunclon™Δ-High Flange Design, Fisher Scientific UK, Bishop Meadow Road, Loughborough LE 11 5 RG, Leicestershire, UK) is prepared by initially adding to column 1 ca. 10 mM of test compound dissolved in DMSO. […] The compound is further diluted with DMSO into columns 2 to 9 by 8 successive 3fold dilutions using the Biomek® FX Laboratory Automation Workstation (Beckman Coulter, Inc., 4300 N. Harbor Boulevard, P.O. Box 3100, Fullerton, Calif. 92834-3100 USA). Column 10 is used as a DMSO negative control (High Signal, 0% response), whilst column 11, which contains 10 mM of the PDE4 inhibitor roflumilast, is used as a positive control (Low Signal, 100% response). About 1 μl (about 1 ul) of compound is transferred to the compound plate using the Biomek® FX.
PBMC cells (peripheral blood mononuclear cells) are prepared from heparinised human blood (using 1% v/v Heparin Sodium 10001 U/ml Endotoxin Free, Leo Laboratories Ltd., Cashel Road, Dublin 12. Ireland, Cat No: PL0043/0149) from normal volunteers using the Accuspin™ System-Histopaque®-1077 essentially (Sigma-Aldrich Company Ltd., The Old Brickyard New Rd, Gillingham Dorset SP8 4XT). About 20 ml of blood is overlaid onto 15 ml Histopaque® in Accuspin™ tubes. The tube is then centrifuged at about 800 g for ca. 20 minutes. The cells are collected from the interface, washed by centrifugation (ca. 1300 g, ca. 10 minutes) and resuspended in RPMI1640 medium (Low endotoxin RPMI1640 medium, Cat No: 31870-025, Invitrogen Corporation Invitrogen Ltd, 3 Fountain Drive, Inchinnan Business Park, Paisley PA4 9RF, UK) containing 10% foetal calf serum, 1% L-glutamine (Invitrogen Corporation, Cat No: 25030024) and 1% penicillin/streptomycin (Invitrogen Corporation, Cat No: 15140-122). Viable cells are counted by trypan blue staining and diluted to 1×10^6 viable cells/ml. About 50 μl (about 50 ul) of diluted cells and about 75 μl (about 75 ul) of LPS (ca. 1 ng/ml final; Sigma Cat No: L-6386) are added to the compound plate, which is then incubated at 37° C., 5% CO2, for 20 hours.
The supernatant is removed and the concentrations of TNF-α are determined by electrochemiluminescence assay using the Meso Scale Discovery (MSD) technology (Meso Scale Discovery, 9238 Gaither Road, Gaithersburg, Md. 20877, USA). See the “TNF-α (TNF-alpha) MSD Assay” described below for typical details.
Using the Biomek FX, 25 μl (25 ul) of MSD Human Serum Cytokine Assay Diluent (Meso Scale Discovery, 9238 Gaither Road, Gaithersburg, Md. 20877) is added to a 96-well High-Bind MSD plate pre-coated with anti-hTNF alpha capture antibody (MA6000) and then incubated for 24 hours at 4° C. to prevent non-specific binding. […]
For the PBMC assay, about 20 μl (ul) of diluted sulfo-TAG antibody (ca. 1 μg/ml final) is added to each well, and the plates/wells are shaken at room temperature for 2 hours. Finally, about 90 μl (ul) of MSD Read Buffer P (diluted to 2.5 times with distilled water) is added and the plates are read on a MSD Sector 6000.
Data analysis is performed with ActivityBase/XC50 module (ID Business Solutions Ltd., 2 Occam Court, Surrey Research Park, Guildford, Surrey, GU2 7QB UK). Data are normalized and expressed as % inhibition using the formula 100*((U-C1)/(C2-C1)) where U is the unknown value, C1 is the average of the high signal (0%) control wells (column 10), and C2 is the average of the low signal (100%) control wells (column 11). […]
`CCc1nc2c(cnn2CC)c(NC2CCOCC2)c1CNC(=O)c1ccc(-c2ccc(C(=O)NCc3c(CC)nc4c(cnn4CC)c3NC3CCOCC3)cc2)cc1` [Example 23, N,N′-bis{[1,6-diethyl-4-(tetrahydro-2H-pyran-4-ylamino)-1H-pyrazolo[3,4-b]pyridin-5-yl]methyl}-4,4′-biphenyldicarboxamide] was tested, and the IC50 was roughly 0.126 nM. With `CCn1ncc2c(NC3CCOCC3)c(CNC(=O)c3cccc(-c4cccc(C(=O)NCc5c(C)nc6c(cnn6CC)c5NC5CCOCC5)c4)c3)c(C)nc21` [Example 29, N,N′-bis{[1-ethyl-6-methyl-4-(tetrahydro-2H-pyran-4-ylamino)-1H-pyrazolo[3,4-b]pyridin-5-yl]methyl}-3,3′-biphenyldicarboxamide] the IC50 was roughly 0.794 nM. Work on `CCc1nc2c(cnn2CC)c(NC2CCOCC2)c1CNC(=O)c1ccc(C(=O)NCc2c(CC)nc3c(cnn3CC)c2NC2CCOCC2)o1` [Example 35, N,N′-bis{[1,6-diethyl-4-(tetrahydro-2H-pyran-4-ylamino)-1H-pyrazolo[3,4-b]pyridin-5-yl]methyl}-2,5furandicarboxamide] yielded an IC50 of roughly 0.1 nM.
